Assay results taken from patent US5807729A, “Metalloprotease having increased activity” (Novo Nordisk A/S, priority 1995, dated 1998).
Like-named read-outs stand apart in the source and are kept apart here. Square brackets hold non-standard residues; d marks the D form. Peptide text beside a SMILES is read from it. pGlu = O=C1CC[C@@H](C(=O)O)N1

Assays:
[1] = target: T1, p45 Metalloprotease (Fusarium oxysporum, UniProt M1UZ70); test: Effect of the pentapeptide on processing of pro-trypsin-like protease by p45; format: biochemical; design: precursor 632 aa (18 signal, 226 pro); native or A. oryzae-expressed with same N-terminus; conditions: 45-minute pre-incubation at room temperature
Experimental: After a 45-minute pre-incubation at room temperature with gentle shaking, the mixtures are diluted 500-fold and assayed for trypsin-like F. oxysporum protease activity.

[2] = target: T1, p45 Metalloprotease; test: Inhibitor analysis of the p45 metalloprotease; format: biochemical; design: precursor 632 aa (18 signal, 226 pro); native or A. oryzae-expressed with same N-terminus
Experimental: (§1) Other metalloprotease inhibitors are utilized to further differentiate the p45 metalloprotease from the Bacillus thermolysins. Inhibition constants for 1,10-phenanthroline, phosphoramidon, and CdCl2 are determined to be 130 uM, 1 uM, and 67 uM against the p45 Metalloprotease (Table 3). Inhibition constants for 1,10-phenanthroline, phosphoramidon, and CdCl2 are 85 uM, 26 uM, and 2 uM against the Bacillus stearothermophilus thermolysin. […] It is of interest to note that phophoramidon is an effective inhibitor of many bacterial metallo-endopeptidases but few of mammalian origin. Also, it is interesting that CdCl2 is found to be such an effective inhibitor of metalloproteases. No evidence of CdCl2 inhibition of metalloproteases has been found in the literature.

[3] = target: Bacillus stearothermophilus thermolysin; test: Inhibitor analysis of B.s. thermolysin; format: biochemical; conditions: for Ki: read-out: Inhibition Constant (Ki), B.s. Thermolysin
Experimental: as §1

[4] = target: T1, p45 Metalloprotease; test: Influence of heavy metal additions on p45 metalloprotease activity (FTC-casein); format: biochemical; design: precursor 632 aa (18 signal, 226 pro); native or A. oryzae-expressed with same N-terminus; conditions: CoCl2 0-4 mM, p45 0.9 ug
Experimental: Samples are incubated at room temperature for 30 minutes.
It is interesting that substoichiometric levels of Zn are found after metal analysis (ICP) of the p45 metalloprotease. It appears that zinc levels are only 5% of that expected based on the level of p45 metalloprotease in the sample. No other heavy metal (i.e. Cd, Cr, Co, Cu, Mo, Ni, Li, […], Fe, Mn, As, Pb, or Se) is present in the p45 maturase sample.

[5] = target: neutral metalloprotease from Bacillus stearothermophilus (Bacillus stearothermophilus); test: enzyme inhibition, kinetic analysis of B.s. thermolysin activity
[6] = system: bacterial thermolysins; conditions: 1M NaCl
Experimental: FTC-casein (20 microliters, 0.5% w/w in 50 mM Tris-Cl, pH 7.2), NaCl (0-2M) in trypsin-like F. oxysporum protease sample buffer, and either trypsin-like F. oxysporum protease (10 microliters, 1.8 ug) or p45 metalloprotease (10 microliters, 0.33 ug) are added to trypsin-like F. oxysporum protease sample buffer to a total volume of 50 microliters. Samples are incubated at room temperature for 30 minutes. At the end of the incubation, 150 microliters of 5% (w/v) trichloroacetic acid is added and the samples are allowed to precipitate for 60 minutes at 4° C. Samples are subsequently centrifuged (14,000 rpm, 5 minutes) and 30 microliters of supernatant are added to 3 ml of 0.5M sodium borate, pH 9.
The fluorescence of the samples is measured (Perkin-Elmer fluorimeter) using a 2.5 nm slit width, excitation at 490 nm and emission detected at 525 nm.

[7] = target: T1, p45 Metalloprotease; conditions: 1M NaCl; FIG. 11
[8] = target: trypsin-like F. oxysporum protease (Fusarium oxysporum, UniProt P35049); conditions: 2M NaCl; FIG. 11
[9] = system: Fusarium oxysporum metalloprotease; test: Inhibition of Fusarium metalloprotease with 1,10-phenanthroline / EDTA and reactivation with Zn2+; format: biochemical; conditions: inhibitor 1 mM
Experimental: (§2) Metalloprotease activity is measured as released trypsin activity from pro-trypsin-like Fusarium oxysporum protease deposited at the Deutsche Sammlung von Mikroorganismen, Gottingen, Germany under the number DSM 2672, after a 30-60 min pre-incubation at 25° C. in 0.1M Tris, 2 mM CaCl2, pH 7 (at lower pH, 100 mM borate, 10 mM DMG, 2 mM CaCl2 is used).
(§3) Metalloproteases contain a catalytic zinc metal center which participates in the hydrolysis of the peptide backbone. The active zinc center differentiates these proteases from calpains whose activities are dependent upon the presence of calcium. Confirmation of a protease as a metallo-protease is loss of proteolytic activity accomplished by removal of the zinc center with 1,10-phenanthroline (1 mM) followed by titration with Zn^2+ (0.1-100 μM) to restore full activity.
(§4) However, when combined the metalloprotease cleaves recombinant pro-trypsin-like Fusarium oxysporum protease disclosed, supra to yield the active tryptic protease. Metalloprotease activity is halted upon the addition of 1 mM 1,10-phenanthroline (Table 1).

[10] = target: T2, trypsin-like Fusarium oxysporum protease (Fusarium oxysporum, UniProt P35049); test: Effect of 1,10-phenanthroline on tryptic activity (L-BAPNA); format: biochemical; conditions: 1,10-phenanthroline 1 mM
T2 construct: the metalloprotease cleaves recombinant pro-trypsin-like Fusarium oxysporum protease disclosed, supra to yield the active tryptic protease; made in house; host or cells: Aspergillus oryzae (IFO 4177), plasmid pSX183
Experimental: as §2, §4

[11] = target: FTC-labeled casein; conditions: scale: fold
[12] = system: pro-trypsin-like Fusarium oxysporum protease; test: Proteolytic enzyme assay: tryptic activity released from pro-trypsin-like protease, L-BAPNA, 405 nm; format: biochemical
Experimental: as §2, §3, §4

[13] = system: FTC-labeled casein; test: pH profile, FTC-casein hydrolysis; format: biochemical
Experimental: Purified p45 metalloprotease (10 microliters, 0.005 mg/ml) is added to 30 microliters of Universal pH buffer (pH 5-11.5), and 20 microliters of FTC-labeled casein are incubated at 37° C. for 1-hour. 150 microliters of 5% TCA is added to acidify and precipitate casein (1-hour at room temperature). […] Samples are then analyzed on the fluorimeter (slit width=2.5 nm; excitation freq.=490 nm; emission freq.=525 nm; integration time=2 sec).

[14] = target: T3, p45 metalloprotease from Fusarium oxysporum (Fusarium oxysporum); test: enzyme inhibition, kinetic analysis of p45 activity
T3 chain: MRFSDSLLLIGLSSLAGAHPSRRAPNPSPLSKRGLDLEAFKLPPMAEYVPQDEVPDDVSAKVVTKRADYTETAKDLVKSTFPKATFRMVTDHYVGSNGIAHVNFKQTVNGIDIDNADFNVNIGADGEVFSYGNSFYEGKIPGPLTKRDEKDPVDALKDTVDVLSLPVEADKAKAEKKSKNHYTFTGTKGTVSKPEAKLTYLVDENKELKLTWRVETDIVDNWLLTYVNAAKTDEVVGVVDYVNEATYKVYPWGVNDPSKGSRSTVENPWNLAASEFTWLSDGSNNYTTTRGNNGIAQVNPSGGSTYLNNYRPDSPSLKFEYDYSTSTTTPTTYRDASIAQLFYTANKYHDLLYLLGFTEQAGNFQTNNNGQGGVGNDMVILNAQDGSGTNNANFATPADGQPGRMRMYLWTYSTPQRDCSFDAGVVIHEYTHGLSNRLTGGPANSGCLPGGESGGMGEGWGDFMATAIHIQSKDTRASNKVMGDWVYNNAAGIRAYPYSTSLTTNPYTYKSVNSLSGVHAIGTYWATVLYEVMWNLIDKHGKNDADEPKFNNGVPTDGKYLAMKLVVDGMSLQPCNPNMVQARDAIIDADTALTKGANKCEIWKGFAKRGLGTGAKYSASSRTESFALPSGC

CC[C@H](C)[C@H](NC(=O)[C@H](CCC(=O)O)NC(=O)[C@@H]1CCC(=O)N1)C(=O)N1CCC[C@H]1C(=O)N[C@@H](CC(N)=O)C(=O)O [<E-E-I-P-N, pyroGlu-Glu-Ile-Pro-Asn-COOH] ([pGlu]EIPN-OH)
effect of the pentapeptide on p45 metalloprotease activity [1]: not an inhibitor of p45 metalloprotease activity
Ki [2]: > 5000 µM
Ki ([3]; no effect): > 5000 µM

[Cl-].[Cl-].[Co+2] [CoCl2]
enhancement of p45 metalloprotease activity [4]: no enhanced activity

synthetic pentapeptide pyroGlu-Glu-Ile-Pro-Asn-COOH
Ki [5]: > 5 mM

[Cl-].[Na+] [NaCl]
inhibition of bacterial thermolysins [6]: 38%
inhibition of p45 metalloprotease activity [7]: 85%
inhibition of trypsin-like F. oxysporum protease activity [8]: 25%

c1cnc2c(c1)ccc1cccnc12 [1,10-phenanthroline]
metalloprotease activity upon addition of the inhibitor [9]: halted
inhibition of trypsin-like protease [10]: not inhibited
Ki [2]: 130 µM
type of inhibition, p45 Maturase ([2]; kinetic analysis): Noncompetitive
type of inhibition, B.s. Thermolysin ([3]; kinetic analysis): Noncompetitive
Ki [3]: 85 µM

B1: trypsin-like Fusarium oxysporum protease (enzyme)
chain: IVGGTSASAGDFPFIVSISRNGGPWCGGSLLNANTVLTAAHCVSGYAQSGFQIRAGSLSRTSGGITSSLSSVRVHPSYSGNNNDLAILKLSTSIPSGGNIGYARLAASGSDPVAGSSATVAGWGATSEGGSSTPVNLLKVTVPIVSRATCRAQYGTSAITNQMFCAGVSSGGKDSCQGDSGGPIVDSSNTLIGAVSWGNGCARPNYSGVYASVGALRSFIDTYA
hydrolysis of FTC-casein at pH 9 [11]: 16
Tryptic Activity ([12]; with 1,10-phenanthroline (1 mM), without Zn2+): 33.8 Δ Abs/min × 10^-4
Tryptic Activity ([12]; with inhibitor (1,10-phenanthroline) addition): 33.8×10^-4 ΔAbs/min
Tryptic Activity ([12]; without 1,10-phenanthroline, without Zn2+): 34.0 Δ Abs/min × 10^-4
Tryptic Activity ([12]; without inhibitor addition): 34.0×10^-4 ΔAbs/min
pH at which the protease functions optimally [13]: ~9.5

B2: synthetic pentapeptide pyroGlu-Glu-Ile-Pro-Asn-COOH (peptide)
peptide: [pGlu]EIPN-OH
SMILES: CC[C@H](C)[C@H](NC(=O)[C@H](CCC(=O)O)NC(=O)[C@@H]1CCC(=O)N1)C(=O)N1CCC[C@H]1C(=O)N[C@@H](CC(N)=O)C(=O)O
Ki [14]: > 5 mM
